Patent US7687547B2, “Diphenyl ether antimicrobial compounds” (Research Foundation of State University of New York, priority 2004, dated 2010)
Converted amounts (≈) assume the structure as drawn. Read-outs that look alike come from different tables or passages of the source.

Legend:
[1] = target: InhA (Mycobacterium tuberculosis, UniProt P9WGR1); assay: InhA enzyme inhibition IC50 (NADH oxidation at 340 nm, DD-CoA substrate); format: biochemical, M. tuberculosis
Procedure: IC50 values were determined by measuring the enzyme activity at different inhibitor concentrations. The experimental data were analyzed using Equation 1, where I is the inhibitor concentration and Y is fraction activity. Y=1/(1+[I]/IC50) (1)
All experiments were carried out on a CARY-100 Bio (Varian) spectrophotometer at 25° C. The buffer used was 30 mM PIPES, 150 mM NaCl, pH 6.8. Kinetic parameters were determined spectrophotometrically by following the oxidation of NADH to NAD^+ at 340 nm (ε=6.3 nM^−1 cm^−1). Trans-2-dodecenoyl-CoA (DD-CoA) was used as a substrate. Two sets of conditions were used for the IC50 determinations.
For inhibitors with IC50 values above 0.2 μM, reaction mixtures contained 250 μM NADH, 74 nM InhA, and 25 μM DD-CoA. […] In each case, the inhibitor concentration was varied over the range of 0-200 μM.

[2] = tested on: Mycobacterium tuberculosis strain H37Rv; assay: MIC99 microplate dilution growth inhibition; format: cell-based; conditions: M. tuberculosis H37Rv, 7H9 broth, 37° C., 3-5 days, lowest concentration inhibiting visible growth
[3] = InhA, 250 μM NADH, DD-CoA substrate, 25° C., pH 6.8, read-out: IC50

InhA, sequence (P9WGR1 whole entry, looked up): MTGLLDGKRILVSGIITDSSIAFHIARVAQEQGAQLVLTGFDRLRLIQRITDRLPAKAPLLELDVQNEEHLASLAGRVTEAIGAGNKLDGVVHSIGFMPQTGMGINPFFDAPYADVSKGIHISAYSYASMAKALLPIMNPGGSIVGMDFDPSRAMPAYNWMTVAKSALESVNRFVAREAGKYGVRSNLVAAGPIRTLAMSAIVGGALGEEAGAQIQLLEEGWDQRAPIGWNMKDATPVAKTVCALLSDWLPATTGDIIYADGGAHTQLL

Row | Structure (SMILES) | IC50 [1, 3] | MIC99 [2] | IC50 [1]
1 | CCCCc1ccc(Oc2ccccc2)c(O)c1 [-(n-C4H9), 5-butyl-2-phenoxyphenol] | 0.08 µM | 0.93 µM (≈ 0.225 µg/mL) | –
2 | CCCCCc1ccc(Oc2ccccc2)c(O)c1 [-(n-C5H11), 5-pentyl-2-phenoxyphenol] | 0.017 µM | 0.93 µM (≈ 0.238 µg/mL) | –
3 | CCCCCCc1ccc(Oc2ccccc2)c(O)c1 [-(n-C6H13), 5-hexyl-2-phenoxyphenol] | – | 0.93 µM (≈ 0.251 µg/mL) | 0.01 µM
4 | CCCCCCCCc1ccc(Oc2ccccc2)c(O)c1 [-(n-C8H17), 5-octyl-2-phenoxyphenol] | 0.005 µM | – | –
5 | CCc1ccc(Oc2ccccc2)c(O)c1 [—C2H5, 5-ethyl-2-phenoxyphenol] | 2 µM | 3.75 µM (≈ 0.803 µg/mL) | –
